Experimental data reported in the supplement of paper PMC11061612.

How the values were obtained:
Test in all cases: combination Emax (second highest fraction inhibited in the dose matrix, 72 h); higher = more inhibition; extreme values may be limits of the assay
[1] = test system: JHH-4 (Hepatocellular Carcinoma)
How it was run: (§1)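 Cell lines in DMEM/F12 or RPMI with 10% FBS were plated in 1536-well plates, held 24 hours at 37°C, 5% CO2, then given two-drug dose matrices for 72 hours (DMSO typically 0.2%). Viability was read by CellTiter-Glo 2.0 luminescence and scaled as inhibition from 0 (vehicle wells) to 1 (blank wells). Combination Emax is the second-highest inhibition in the matrix; Bliss excess is observed combination effect minus expected EA + EB − EA·EB, EA and EB being single-agent effects.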

[2] = test system: HCC1187 (Breast Carcinoma)
How it was run: as §1

[3] = test system: RD (Rhabdomyosarcoma)
How it was run: as §1

[4] = test system: ST486 (Burkitt's Lymphoma)
How it was run: as §1

[5] = test system: NCI-H520 (Squamous Cell Lung Carcinoma)
How it was run: as §1

[6] = test system: CHSA8926 (Chondrosarcoma)
How it was run: as §1

[7] = test system: KY821 (Acute Myeloid Leukemia)
How it was run: as §1

[8] = test system: H9 (T-Cell Non-Hodgkin's Lymphoma)
How it was run: as §1

[9] = test system: SU-DHL-5 (B-Cell Non-Hodgkin's Lymphoma)
How it was run: as §1

[10] = test system: T-T (Esophageal Squamous Cell Carcinoma)
How it was run: as §1

[11] = test system: CW-2 (Colorectal Carcinoma)
How it was run: as §1

[12] = test system: VMRC-RCZ (Kidney Carcinoma)
How it was run: as §1

[13] = test system: HCC1419 (Breast Carcinoma)
How it was run: as §1

[14] = test system: SK-GT-4 (Esophageal Adenocarcinoma)
How it was run: as §1

[15] = test system: DMS-114 (Small Cell Lung Carcinoma)
How it was run: as §1

[16] = test system: SNU-398 (Hepatocellular Carcinoma)
How it was run: as §1

[17] = test system: DAN-G (Pancreatic Carcinoma)
How it was run: as §1

[18] = test system: NCI-H526 (Small Cell Lung Carcinoma)
How it was run: as §1

[19] = test system: NCCIT (Other Solid Carcinomas)
How it was run: as §1

[20] = test system: M059J (Glioblastoma)
How it was run: as §1

| SMILES | combination Emax [1] | combination Emax [2] | combination Emax [3] | combination Emax [4] | combination Emax [5] | combination Emax [6] | combination Emax [7] | combination Emax [8] | combination Emax [9] | combination Emax [10] | combination Emax [11] | combination Emax [12] | combination Emax [13] | combination Emax [14] | combination Emax [15] | combination Emax [16] | combination Emax [17] | combination Emax [18] | combination Emax [19] | combination Emax [20] |
| --- | --- | --- | --- | --- | --- | --- | --- | --- | --- | --- | --- | --- | --- | --- | --- | --- | --- | --- | --- | --- |
| CC1(C)CCC(CN2CCN(c3ccc(C(=O)NS(=O)(=O)c4ccc(NCC5CCOCC5)c([N+](=O)[O-])c4)c(Oc4cnc5[nH]ccc5c4)c3)CC2)=C(c2ccc(Cl)cc2)C1 [Venetoclax] + C[C@@H](Nc1cc(F)cc(F)c1)c1cc(C(=O)N(C)C)cc2c(=O)cc(N3CCOCC3)oc12 [AZD8186] (first compound max 1 µM, 7x7, partner max 3 µM) | 0.211 | 0.138 | 0.265 | 0.695 | 0.488 | 0.478 | 1 | 0.299 | 0.984 | 0.172 | 0.0925 | 0.201 | 0.181 | 0.229 | 0.113 | 0.166 | 0.0841 | 0.799 | 0.177 | 0.306 |
| CN(CCO)CC[C@H](CSc1ccccc1)Nc1ccc(S(=O)(=O)NC(=O)c2ccc(N3CCC([C@@H](O)c4ccccc4-c4ccc(Cl)cc4)CC3)cc2)cc1S(=O)(=O)C(F)(F)F [AZD4320] + Cc1cc2ncnn2cc1Nc1ncc2c(n1)n(C1CCOCC1)c(=O)n2C [AZD7648] (first compound max 1 µM, 7x7, partner max 10 µM) | 0.233 | 0.114 | 0.61 | 0.959 | 0.541 | 0.688 | 1 | 0.99 | 0.797 | 0.106 | 0.154 | 0.0798 | 0.278 | 0.321 | 0.321 | 0.261 | 0.474 | 0.908 | 0.243 | 0.386 |
| COc1cccc(OCCCN)c1-c1cc(Nc2cnc(C#N)cn2)n[nH]1 [Prexasertib] + CCc1c2c(nc3ccc(O)cc13)-c1cc3c(c(=O)n1C2)COC(=O)[C@]3(O)CC [SN-38] (first compound max 1 µM, 7x7, partner max 0.3 µM) | 0.954 | 0.866 | 0.958 | 1 | 0.867 | 0.537 | 1 | 1 | 1 | 0.971 | 0.612 | 0.625 | 0.402 | 0.743 | 0.716 | 0.725 | 0.933 | 1 | 0.85 | 0.98 |
| COc1nnc2ccc(N3CCC(c4ccc(OCCN5CCN(C)C(=O)[C@H]5C)cc4)CC3)nn12 [AZD5153] + Cc1c2c(nn1C)CSCc1cc(n(C)n1)CSc1cc(c3ccccc3c1)OCCCc1c(C(=O)O)n(C)c3c-2c(Cl)ccc13 [AZD5991] (first compound max 1 µM, 7x7, partner max 1 µM) | 0.379 | 1 | 0.808 | 0.978 | 0.744 | 0.651 | 1 | 1 | 1 | 0.958 | 0.527 | 0.323 | 0.567 | 0.53 | 1 | 1 | 0.337 | 1 | 0.998 | 0.864 |
| COc1nnc2ccc(N3CCC(c4ccc(OCCN5CCN(C)C(=O)[C@H]5C)cc4)CC3)nn12 [AZD5153] + C[C@@H]1COCCN1C2=NC(=NC(=C2)C3(CC3)[S@](=N)(=O)C)C4=C5C=CNC5=NC=C4 [AZD6738] (first compound max 1 µM, 7x7, partner max 10 µM) | 0.714 | 0.696 | 0.748 | 0.973 | 0.869 | 0.632 | 1 | 1 | 1 | 0.587 | 0.722 | 0.58 | 0.295 | 0.663 | 0.733 | 0.786 | 0.726 | 0.947 | 0.901 | 0.74 |
| CC1(C)CCC(CN2CCN(c3ccc(C(=O)NS(=O)(=O)c4ccc(NCC5CCOCC5)c([N+](=O)[O-])c4)c(Oc4cnc5[nH]ccc5c4)c3)CC2)=C(c2ccc(Cl)cc2)C1 [Venetoclax] + CCN(CCO)CCCOc1ccc2c(Nc3cc(CC(=O)Nc4cccc(F)c4)[nH]n3)ncnc2c1 [AZD2811] (first compound max 1 µM, 7x7, partner max 1 µM) | 0.205 | 0.886 | 0.172 | 0.925 | 0.258 | 0.34 | 0.978 | 0.888 | 0.778 | 0.181 | 0.177 | 0.178 | 0.212 | 0.409 | 0.207 | 0.515 | 0.21 | 0.928 | 0.282 | 0.375 |
| Cc1c2c(nn1C)CSCc1cc(n(C)n1)CSc1cc(c3ccccc3c1)OCCCc1c(C(=O)O)n(C)c3c-2c(Cl)ccc13 [AZD5991] + C[C@@H](Nc1cc(F)cc(F)c1)c1cc(C(=O)N(C)C)cc2c(=O)cc(N3CCOCC3)oc12 [AZD8186] (first compound max 1 µM, 7x7, partner max 3 µM) | 0.271 | 0.993 | 0.521 | 0.829 | 0.644 | 0.797 | 1 | 0.574 | 1 | 0.915 | 0.139 | 0.287 | 0.344 | 0.288 | 0.61 | 0.995 | 0.36 | 0.482 | 0.678 | 0.421 |
| Cc1cc2ncnn2cc1Nc1ncc2c(n1)n(C1CCOCC1)c(=O)n2C [AZD7648] + O=C(c1cc(Cc2n[nH]c(=O)c3ccccc23)ccc1F)N1CCN(C(=O)C2CC2)CC1 [Olaparib] (first compound max 10 µM, 7x7, partner max 10 µM) | 0.112 | 0.294 | 0.161 | 0.424 | 0.485 | 0.241 | 0.355 | 0.22 | 0.96 | 0.0568 | 0.0683 | 0.129 | 0.174 | 0.26 | 0.236 | 0.134 | 0.531 | 0.473 | 0.192 | 0.431 |
| CC1(C)CCC(CN2CCN(c3ccc(C(=O)NS(=O)(=O)c4ccc(NCC5CCOCC5)c([N+](=O)[O-])c4)c(Oc4cnc5[nH]ccc5c4)c3)CC2)=C(c2ccc(Cl)cc2)C1 [Venetoclax] + CN(C)CCCOc1ccc(-c2ccc3ncc4c(c3c2)n(C2CCOCC2)c(=O)n4C)cn1 [AZD0156] (first compound max 1 µM, 7x7, partner max 1 µM) | 0.234 | 0.173 | 0.161 | 0.77 | 0.354 | 0.212 | 0.926 | 0.156 | 0.455 | 0.204 | 0.174 | 0.14 | 0.289 | 0.392 | 0.245 | 0.234 | 0.264 | 0.856 | 0.275 | 0.169 |
| Cc1cc2ncnn2cc1Nc1ncc2c(n1)n(C1CCOCC1)c(=O)n2C [AZD7648] + C=CCn1c(=O)c2cnc(Nc3ccc(N4CCN(C)CC4)cc3)nc2n1-c1cccc(C(C)(C)O)n1 [AZD1775] (first compound max 10 µM, partner max 1 µM) | 0.483 | 0.304 | 0.32 | 0.98 | 0.81 | 0.592 | 0.994 | 0.969 | 1 | 0.461 | 0.391 | 0.393 | 0.341 | 0.474 | 0.385 | 0.533 | 0.631 | 0.721 | 0.853 | 0.522 |
| COc1nnc2ccc(N3CCC(c4ccc(OCCN5CCN(C)C(=O)[C@H]5C)cc4)CC3)nn12 [AZD5153] + Cn1cnc2c(F)c(Nc3ccc(Br)cc3Cl)c(C(=O)NOCCO)cc21 [Selumetinib] (first compound max 1 µM, 7x7, partner max 10 µM) | 0.906 | 0.383 | 0.77 | 0.994 | 0.61 | 0.442 | 1 | 1 | 1 | 0.633 | 0.565 | 0.308 | 0.355 | 0.651 | 0.614 | 0.556 | 0.527 | 0.941 | 0.786 | 0.618 |
| C=CCn1c(=O)c2cnc(Nc3ccc(N4CCN(C)CC4)cc3)nc2n1-c1cccc(C(C)(C)O)n1 [AZD1775] + O=C(c1cc(Cc2n[nH]c(=O)c3ccccc23)ccc1F)N1CCN(C(=O)C2CC2)CC1 [Olaparib] (first compound max 1 µM, partner max 10 µM) | 0.307 | 0.423 | 0.461 | 0.979 | 0.833 | 0.455 | 1 | 0.868 | 1 | 0.455 | 0.392 | 0.339 | 0.118 | 0.363 | 0.363 | 0.5 | 0.646 | 0.758 | 0.759 | 0.618 |
